Results from BindingDB's records for patent US12258317 (Sunshine Lake Pharma Co., 2025).

Assays:
[1] = molecular target: T1, Amine oxidase [copper-containing] 3 (Homo sapiens, UniProt Q16853); assay: Inhibitory Activity of Human Recombinant SSAO/VAP-1
T1 sequence (Q16853 whole entry): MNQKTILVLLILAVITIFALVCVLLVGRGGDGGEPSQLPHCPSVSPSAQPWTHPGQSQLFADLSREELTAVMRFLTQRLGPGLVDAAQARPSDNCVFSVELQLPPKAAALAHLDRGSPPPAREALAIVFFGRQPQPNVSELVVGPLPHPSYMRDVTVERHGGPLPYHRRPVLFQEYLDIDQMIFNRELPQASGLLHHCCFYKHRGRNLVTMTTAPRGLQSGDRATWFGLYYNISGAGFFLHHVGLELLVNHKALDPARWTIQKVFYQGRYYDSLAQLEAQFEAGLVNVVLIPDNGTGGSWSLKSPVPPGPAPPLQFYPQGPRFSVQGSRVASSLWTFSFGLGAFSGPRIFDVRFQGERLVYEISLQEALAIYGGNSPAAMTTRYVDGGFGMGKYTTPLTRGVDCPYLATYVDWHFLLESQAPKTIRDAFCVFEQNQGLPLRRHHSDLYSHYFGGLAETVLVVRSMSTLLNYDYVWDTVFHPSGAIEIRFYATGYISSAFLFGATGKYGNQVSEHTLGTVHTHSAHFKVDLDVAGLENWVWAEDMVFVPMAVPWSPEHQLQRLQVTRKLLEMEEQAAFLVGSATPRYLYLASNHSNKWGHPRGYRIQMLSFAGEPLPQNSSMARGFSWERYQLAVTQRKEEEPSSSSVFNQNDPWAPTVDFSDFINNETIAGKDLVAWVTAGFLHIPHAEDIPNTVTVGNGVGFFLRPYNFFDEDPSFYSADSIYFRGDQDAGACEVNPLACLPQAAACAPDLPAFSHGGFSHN
Text: Test purpose: The following method is used to determine the inhibitory activity of the compounds in the examples of the present invention on human recombinant SSAO/VAP-1.Test Materials:Human recombinant SSAO/VAP-1 (VAP-1, human) was purchased from Sigma, Cat. No. SRP6241;Amplex Red Monoamine Oxidase Assay Kit was purchased from Invitrogen, Cat. No. A12214;384-well plate was purchased from Corning, Cat. No. 6005174;Amplex Red Hydrogen PeroxidePeroxidase Assay Kit was purchased from Invitrogen, Cat. No. A22188.Benzylamine hydrochloride was purchased from Sigma, Cat. No. B5136-25G;DMSO (Dimethyl Sulfoxide) was purchased from Sigma, Cat. No. D2650-100ML;Test Method:The test compound was dissolved in DMSO and diluted 4 times to a total of 10 concentrations. In a 384-well plate, 25 μL of human recombinant SSAO/VAP-1 (1.6 μg/mL) was added into each well. 100 nL of test compounds at different concentrations were added to each well containing human recombinant SSAO/VAP-1, and the plate was incubated at room temperature for 30 min. […] After 60 min, PerkinElmer's Envision was used to read the fluorescence value (RFU) under excitation at 530-560 nm and emission at 590 nm.

[2] = molecular target: T2, Diamine oxidase [copper-containing] (Homo sapiens, UniProt P19801); assay: Inhibition of DAO (Diamine Oxidase)
T2 construct: gene AOC1
T2 sequence (P19801 20-751 limits assumed): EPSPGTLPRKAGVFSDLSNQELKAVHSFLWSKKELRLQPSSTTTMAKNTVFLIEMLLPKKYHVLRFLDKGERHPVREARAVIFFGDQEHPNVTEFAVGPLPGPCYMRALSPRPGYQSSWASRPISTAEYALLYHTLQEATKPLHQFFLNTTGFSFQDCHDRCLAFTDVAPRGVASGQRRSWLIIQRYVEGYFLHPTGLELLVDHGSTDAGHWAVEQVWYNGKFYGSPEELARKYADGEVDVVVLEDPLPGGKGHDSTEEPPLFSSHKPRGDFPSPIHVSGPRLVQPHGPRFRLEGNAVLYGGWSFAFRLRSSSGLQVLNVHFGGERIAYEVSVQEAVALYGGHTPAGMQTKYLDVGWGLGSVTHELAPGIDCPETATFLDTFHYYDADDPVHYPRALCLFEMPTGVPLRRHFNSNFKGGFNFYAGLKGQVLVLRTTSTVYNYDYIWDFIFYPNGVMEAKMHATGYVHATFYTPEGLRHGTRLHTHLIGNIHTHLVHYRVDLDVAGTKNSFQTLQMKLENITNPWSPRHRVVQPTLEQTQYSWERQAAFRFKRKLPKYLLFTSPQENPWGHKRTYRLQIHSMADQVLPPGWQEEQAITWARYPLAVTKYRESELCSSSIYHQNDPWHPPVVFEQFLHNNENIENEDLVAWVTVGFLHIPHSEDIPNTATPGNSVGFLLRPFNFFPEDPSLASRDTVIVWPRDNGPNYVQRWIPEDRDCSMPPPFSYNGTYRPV
Experimental: Test purpose: The following method is used to determine the selective inhibitory activity of the compound of the present invention on DAO.Test Materials:Human recombinant DAO (Recombinant Human ABP-1/DAO) was purchased from R&D, Cat. No. 8298-AO;Amplex Red Hydrogen PeroxidePeroxidase Assay Kit was purchased from Invitrogen, Cat. No. A22188;1,4-Diaminobutane dihydrochloride was purchased from Aladdin, Cat. No. D106194-25G.Test Method:The test compound was dissolved in DMSO and diluted 5 times to a total of 6 concentrations. In a 384-well plate, 24 μL of human recombinant DAO (1 μg/mL) was added into each well. 1 μL of test compounds at different concentrations were added to each well containing human recombinant DAO, and the plate was incubated at 37° C. for 30 min. After incubating for 30 min, 25 μL of Amplex Red Hydrogen Peroxide Peroxidase Assay Kit (containing 100 μM Amplex Red and 0.2 U/ml HRP) containing 1 M 1,4-butanediamine dihydrochloride was added into the corresponding wells, and the plate was incubated in the dark at 37° C. for 30 min. After 30 min, PHERAstar FSX microplate reader of BMG LABTECH was used to read the fluorescence value (RFU) under excitation at 540 nm and emission at 580 nm.

Row | IC50 [1] | IC50 [2] | SMILES
1 | 6.29 nM | > 1000 nM | NC/C(=C\F)COc1ccc2c(c1)CCN(CC(N)=O)C2=O [US12258317, Example 1]
2 | 2.2 nM | – | NC/C(=C/F)COc1ccc2c(c1)CCN(CC(N)=O)C2=O [US12258317, Example 2]
